In patent EP2703003A1, “A pomegranate extract and compositions containing pomegranate polyphenols for treating or preventing diseases or physiopathological conditions associated with an excessive gene expression and/or physiological activity of interleukin-6” (Probelte Biotecnologia S.L., priority 2012, dated 2014):
Like-named read-outs stand apart in the source and are kept apart here.

Experiments:
[1] = side effect, background statement; cited from earlier work
[2] = system: dermal papilla hair follicle cells; settings: 24 hours, 270 picog/mL at dose 0
Protocol: In another independent study, in vitro cultures of dermal papilla hair follicle cells grown using DMEM as a culture medium were seeded at a density of 1.5 x 10^5 cells per 50 mm of plate surface and incubated overnight. Then 3 consecutive washes with PBS were performed and DMEM culture medium supplemented with variables amounts of DHT was added to each of the cultures; specifically three doses were tested: 0, 25 and 100 nanoM. The culture medium was sampled after 24 hours to measure the concentration of interleukin-6 by means of ELISA.

SMILES	itchy scalp [1]	mean concentration of interleukin-6 in the culture media ([2]; 25 nanoM)	mean concentration of interleukin-6 in the culture media ([2]; 100 nanoM)
Nc1cc(N2CCCCC2)nc(N)[n+]1[O-] [Minoxidil]	1.5 % of patients	–	–
C[C@]12CCC(=O)C[C@@H]1CC[C@@H]1[C@@H]2CC[C@]2(C)[C@@H](O)CC[C@@H]12 [DHT, 5-dihydrotestosterone]	–	1270 picog/mL	2190 picog/mL
